This is an account of results in US10414754B2, “Indolizine compounds, a process for their preparation and pharmaceutical compositions containing them” (LES LABORATOIRES SERVIER, priority 2013, dated 2019).

One assay addresses T1, Bcl-2 protein (histag-Bcl-2, UniProtKB P10415) (Homo sapiens, UniProt P10415).
T1 construct: His tag
Briefly: Inhibition of Bcl-2 by the fluorescence polarisation technique. It is filed as binding. Particulars: for IC50: fluorescence polarisation, 2 hours incubation, read-out: IC50 (nM) Bcl-2 FP. The procedure, abridged:
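Fluorescence polarisation competition: His-tagged human Bcl-2 (2.50×10^−8 M final) was mixed with fluorescein-labelled peptide (1.00×10^−8 M final) and increasing compound concentrations. Buffer was 10 mM Hepes, 150 mM NaCl, 0.05% Tween20, pH 7.4. Polarisation was read after 2 h.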
For orientation: In fluorescence polarisation assays a small probe gives low polarisation when free and higher when bound to something large.

For assay [1], the system named is RS4;11 leukaemia tumour line. Briefly: In vitro cytotoxicity (MTT) on RS4;11. Particulars: RS4;11 cells, 48 hours exposure. It is filed as cell-based. As to the method: The cytotoxicity studies were carried out on the RS4;11 leukaemia tumour line.
The cells are distributed onto microplates and exposed to the test compounds for 48 hours.
The cell viability is then quantified by a colorimetric assay, the Microculture Tetrazolium Assay (Cancer Res., 1987, 47, 939-942).

Counter-ions that a name gives are not always drawn.

T1 sequence (P10415 whole entry): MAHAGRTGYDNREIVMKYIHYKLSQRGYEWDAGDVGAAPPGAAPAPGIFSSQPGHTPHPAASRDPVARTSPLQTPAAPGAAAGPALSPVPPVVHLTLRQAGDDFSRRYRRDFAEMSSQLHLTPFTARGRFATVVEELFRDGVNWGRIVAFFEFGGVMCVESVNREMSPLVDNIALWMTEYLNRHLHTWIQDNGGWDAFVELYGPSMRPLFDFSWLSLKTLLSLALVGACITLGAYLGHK

As for `C[C@@H]1Cc2ccccc2CN1C(=O)c1cc2c(cc1-c1cc(C(=O)N(C)c3ccc(O)cc3)c3n1CCCC3)OCO2` [Example 81, N-(4-Hydroxyphenyl)-N-methyl-3-(6-{[(3R)-3-methyl-3,4-dihydroiso-quinolin-2(1H)-yl]carbonyl}-1,3-benzodioxol-5-yl)-5,6,7,8-tetrahydroindolizine-1-carboxamide], the values for the IC50 (on Bcl-2 protein; in assay [1] (Homo sapiens)) were 12.1 nM and 778 nM, respectively.
Regarding `C[C@@H]1Cc2ccccc2CN1C(=O)c1cc2c(cc1-c1cc(C(=O)N(c3ccncc3)c3ccc(O)cc3)c3n1CCCC3)OCO2` [Example 42, N-(4-Hydroxyphenyl)-3-(6-{[(3R)-3-methyl-3,4-dihydroisoquinolin-2(1H)-yl]carbonyl}-1,3-benzodioxol-5-yl)-N-(pyridin-4-yl)-5,6,7,8-tetrahydro-indolizine-1-carboxamide hydrochloride], the half-maximal inhibitory concentration (IC50) amounted to 5.1 nM at Bcl-2 protein and 57.6 nM in assay [1] (Homo sapiens).
Take `Cn1ncc2cc(N(C(=O)c3cc(-c4cc5c(cc4C(=O)N4Cc6ccccc6C[C@H]4CCN4CCOCC4)OCO5)n4c3CCCC4)c3ccc(O)cc3)ccc21` [Example 14, N-(4-Hydroxyphenyl)-N-(1-methyl-1H-indazol-5-yl)-3-(6-{[(3S)-3-[2-(morpholin-4-yl)ethyl]-3,4-dihydroisoquinolin-2(1H)-yl]carbonyl}-1,3-benzodioxol-5-yl)-5,6,7,8-tetrahydroindolizine-1-carboxamide hydrochloride]: the IC50 at Bcl-2 protein was found to be 3.7 nM; in assay [1] (Homo sapiens) it was 7.6 nM.
In the same order, the values of `C[C@@H]1Cc2ccccc2CN1C(=O)c1ccc(Cl)cc1-c1cc(C(=O)N(c2ccc(O)cc2)c2ccc3c(cnn3C)c2)c2n1CCNC2` [Example 12, 6-(5-Chloro-2-{[(3R)-3-methyl-3,4-dihydroisoquinolin-2(1H)-yl]-carbonyl}phenyl)-N-(4-hydroxyphenyl)-N-(1-methyl-1H-indazol-5-yl)-1,2,3,4-tetrahydropyrrolo[1,2-a]pyrazine-8-carboxamide hydrochloride] are 10.4 nM and 116 nM.
As for `O=C(c1cc(-c2cc3c(cc2C(=O)N2Cc4ccccc4C[C@H]2CCN2CCOCC2)OCO3)n2c1CCCC2)N(c1ccc(O)cc1)c1ccc(F)c(F)c1` [Example 25, N-(3,4-Difluorophenyl)-N-(4-hydroxyphenyl)-3-(6-{[(3S)-3-[2-(morpholin-4-yl)ethyl]-3,4-dihydroisoquinolin-2(1H)-yl]carbonyl}-1,3-benzodioxol-5-yl)-5,6,7,8-tetrahydroindolizine-1-carboxamide hydrochloride], the concentration for half-maximal inhibition (IC50) at Bcl-2 protein turned out to be 7.9 nM; in assay [1] (Homo sapiens), 30 nM.
Consider `C[C@@H]1Cc2ccccc2CN1C(=O)c1ccc(F)cc1-c1cc(C(=O)N(c2ccc(O)cc2)c2ccc(F)cc2)c2n1CCNC2` [Example 9, 6-(5-Fluoro-2-{[(3R)-3-methyl-3,4-dihydroisoquinolin-2(1H)-yl]carbonyl}-phenyl)-N-(4-fluorophenyl)-N-(4-hydroxyphenyl)-1,2,3,4-tetrahydropyrrolo[1,2-a]-pyrazine-8-carboxamide hydrochloride], for which the results for the IC50 (at Bcl-2 protein; in assay [1] (Homo sapiens)) were 40.6 nM and 780 nM, respectively.
The corresponding values for `O=C(c1cc2c(cc1-c1cc(C(=O)N(c3ccc(O)cc3)c3ccc(OCCN4CCOCC4)c(F)c3)c3ccccn13)OCO2)N1CCc2ccccc2C1` [Example 18, 3-[6-(3,4-Dihydroisoquinolin-2(1H)-ylcarbonyl)-1,3-benzodioxol-5-yl]-N-{3-fluoro-4-[2-(morpholin-4-yl)ethoxy]phenyl}-N-(4-hydroxyphenyl)indolizine-1-carboxamide hydrochloride] are 7.5 nM and 47.7 nM.
Turning to `C[C@@H]1Cc2ccccc2CN1C(=O)c1cc2c(cc1-c1cc(C(=O)N(c3ccc(O)cc3)c3ccc(CN4CCCC(F)(F)C4)cc3)c3ccccn13)OCO2` [Example 30, N-{4-[(3,3-Difluoropiperidin-1-yl)methyl]phenyl}-N-(4-hydroxyphenyl)-3-(6-{[(3R)-3-methyl-3,4-dihydroisoquinolin-2(1H)-yl]carbonyl}-1,3-benzodioxol-5-yl)indolizine-1-carboxamide hydrochloride], the figures for the IC50 (at Bcl-2 protein; in assay [1] (Homo sapiens)) were 10.4 nM and 52.3 nM, respectively.
As to `O=C(c1cc(-c2cc3c(cc2C(=O)N2Cc4ccccc4C[C@H]2CO)OCO3)n2c1CCCC2)N(c1ccccc1)c1ccc(O)cc1` [Example 16, 3-(6-{[(3S)-3-(Hydroxymethyl)-3,4-dihydroisoquinolin-2(1H)-yl]-carbonyl}-1,3-benzodioxol-5-yl)-N-(4-hydroxyphenyl)-N-phenyl-5,6,7,8-tetrahydro-indolizine-1-carboxamide], the IC50 on Bcl-2 protein came out at 7.5 nM; in assay [1] (Homo sapiens) it was 252 nM.
As for `C[C@@H]1Cc2ccccc2CN1C(=O)c1cc2c(cc1-c1cc(C(=O)N(c3ccc(O)cc3)c3ccc4ncccc4c3)c3ccccn13)OCO2` [Example 31, N-(4-Hydroxyphenyl)-3-(6-{[(3R)-3-methyl-3,4-dihydroisoquinolin-2(1H)-yl]carbonyl}-1,3-benzodioxol-5-yl)-N-(quinolin-6-yl)indolizine-1-carboxamide hydrochloride], the IC50 on Bcl-2 protein is 5.4 nM; in assay [1] (Homo sapiens) it was 13.7 nM.
For the compound `C[C@@H]1Cc2ccccc2CN1C(=O)c1cc2c(cc1-c1cc(C(=O)N(c3ccccc3)c3ccc(O)cc3)c3n1CCC(N)C3)OCO2` (stereo partly drawn) [Example 15, 7-Amino-N-(4-hydroxyphenyl)-3-(6-{[(3R)-3-methyl-3,4-dihydroiso-quinolin-2(1H)-yl]carbonyl}-1,3-benzodioxol-5-yl)-N-phenyl-5,6,7,8-tetrahydro-indolizine-1-carboxamide hydrochloride], the concentration for half-maximal inhibition (IC50) worked out at 5.7 nM on Bcl-2 protein and 166 nM in assay [1] (Homo sapiens).
Take `O=C(c1cc(-c2cc3c(cc2C(=O)N2Cc4ccccc4C[C@H]2CCNCC(F)F)OCO3)n2c1CCCC2)N(c1ccccc1)c1ccc(O)cc1` [Example 43, 3-(6-{[(3S)-3-{2-[(2,2-Difluoroethyl)amino]ethyl}-3,4-dihydroisoquinolin-2(1H)-yl]carbonyl}-1,3-benzodioxol-5-yl)-N-(4-hydroxyphenyl)-N-phenyl-5,6,7,8-tetrahydroindolizine-1-carboxamide]: the figures for the IC50 (on Bcl-2 protein; in assay [1] (Homo sapiens)) were 4.8 nM and 26 nM, respectively.
Consider `O=C(c1cc(-c2cc3c(cc2C(=O)N2Cc4ccccc4C[C@H]2CCN2CCOCC2)OCO3)n2cccnc12)N(c1ccccc1)c1ccc(O)cc1` [Example 22, N-(4-Hydroxyphenyl)-6-(6-{[(3S)-3-[2-(morpholin-4-yl)ethyl]-3,4-dihydroisoquinolin-2(1H)-yl]carbonyl}-1,3-benzodioxol-5-yl)-N-phenylpyrrolo[1,2-a]-pyrimidine-8-carboxamide hydrochloride], for which the IC50 on Bcl-2 protein is 12.9 nM; in assay [1] (Homo sapiens), 263 nM.
Turning to `Cc1ccc(C(=O)N2Cc3ccccc3C[C@H]2CCN2CCOCC2)c(-c2cc(C(=O)N(c3ccccc3)c3ccc(O)cc3)c3n2CCCC3)c1` [Example 19, N-(4-Hydroxyphenyl)-3-(5-methyl-2-{[(3S)-3-[2-(morpholin-4-yl)ethyl]-3,4-dihydroisoquinolin-2(1H)-yl]carbonyl}phenyl)-N-phenyl-5,6,7,8-tetrahydro-indolizine-1-carboxamide hydrochloride], the IC50 at Bcl-2 protein turned out to be 8 nM; in assay [1] (Homo sapiens) it was 235 nM.
Consider `CCN(C(=O)c1cc(-c2cc3c(cc2C(=O)N2CCc4ccccc4C2)OCO3)n2c1CCCC2)c1ccc(O)cc1` [Example 75, 3-[6-(3,4-Dihydroisoquinolin-2(11)-ylcarbonyl)-1,3-benzodioxol-5-yl]-N-ethyl-N-(4-hydroxyphenyl)-5,6,7,8-tetrahydroindolizine-1-carboxamide], for which the IC50 is 67.7 nM on Bcl-2 protein and 1360 nM in assay [1] (Homo sapiens).
Take `C[C@H]1Cc2ccccc2CN1C(=O)c1cc2c(cc1-c1cc(C(=O)N(C)c3ccc(O)cc3)c3n1CCCC3)OCO2` [Example 82, N-(4-Hydroxyphenyl)-N-methyl-3-(6-{[(3S)-3-methyl-3,4-dihydroiso-quinolin-2(1H)-yl]carbonyl}-1,3-benzodioxol-5-yl)-5,6,7,8-tetrahydroindolizine-1-carboxamide]: the “percentage fluorescence polarisation inhibition (partial inhibitors), Bcl-2 FP” value on Bcl-2 protein (@ 10 μM test compound) worked out at 42% @ 10 μM. This compound also showed a half-maximal inhibitory concentration (IC50) in assay [1] of 1880 nM.
With `C[C@@H]1Cc2ccccc2CN1C(=O)c1cc2c(cc1-c1cc(C(=O)N(c3ccc(O)cc3)c3cccnc3)c3ccccn13)OCO2` [Example 34, N-(4-Hydroxyphenyl)-3-(6-{[(3R)-3-methyl-3,4-dihydroisoquinolin-2(1H)-yl]carbonyl}-1,3-benzodioxol-5-yl)-N-(pyridin-3-yl)indolizine-1-carboxamide hydrochloride], the IC50 at Bcl-2 protein was determined as 5.6 nM; in assay [1] (Homo sapiens), 27.3 nM.
The corresponding values for `C[C@@H]1Cc2ccccc2CN1C(=O)c1ccc(F)cc1-c1cc(C(=O)N(c2ccc(O)cc2)c2cnn(C)c2)c2ccccn12` [Example 60, 3-(5-Fluoro-2-{[(3R)-3-methyl-3,4-dihydroisoquinolin-2(1H)-yl]-carbonyl}phenyl)-N-(4-hydroxyphenyl)-N-(1-methyl-1H-pyrazol-4-yl)indolizine-1-carboxamide] are 5.4 nM and 60.3 nM.
On to `O=C(c1cc(-c2ccccc2C(=O)N2Cc3ccccc3C[C@H]2CCN2CCOCC2)n2c1CCCC2)N(c1ccccc1)c1ccc(O)cc1` [Example 20, N-(4-Hydroxyphenyl)-3-(2-{[(3S)-3-[2-(morpholin-4-yl)ethyl]-3,4-dihydroisoquinolin-2(1H)-yl]carbonyl}phenyl)-N-phenyl-5,6,7,8-tetrahydroindolizine-1-carboxamide hydrochloride], for which the figures for the IC50 (at Bcl-2 protein; in assay [1] (Homo sapiens)) were 11.1 nM and 205 nM, respectively.

In general, IC50 refers to the concentration that gives 50% inhibition.
